“And” between values parts separate entries of the source, which are not always exact repeats. Equal entries are not always repeated. “Also recorded” adds a separate entry of the source.
Legend:
RA PBMC [1] = test: APL A12 inhibition of IFNγ production by α1(II)-stimulated RA PBMC; format: cell-based, human; settings: for IFNy Stimulation Index: 144 h
Procedure: (§1) We assessed the ability of APL A12 added to cultures of PBMC to affect production of IFNγ and other Th1 and Th2 cytokines by the cultured PBMC stimulated with α1(II) from 18 RA patients, 16 of whom had known HLA DR B1 haplotypes. 16 of these patients were taking methothexate, 10 NSAIDS and 12 anti-TNF agents. One patient was taking Arava. Isolated PBMC were resuspended in Dulbecco's minimal essential medium containing penicillin (100 U/ml), streptomycin (100 μg/ml), 9% fetal calf serum (FCS), and non-essential amino acids thereafter referred to as “Complete Medium” at a concentration of 4×10^6 cells/ml. Aliquots (0.5 ml) of the cell suspension were dispensed into wells of 48 well tissue culture plates (NUNC, Roskilde, Denmark).

TCR-ζ chain = test: Phosphorylation of the TCR-ζ chain in CII-specific CD4+ T cells; format: cell-based, mouse; settings: CD4+ T cells cultured with peptide-pulsed APCs; FIG. 4
Procedure: Purified CD4+ cells from the DR1-TCR tg mice are an excellent source of cells to explore the intracellular signaling pathways induced by either A2 or A12. In preliminary experiments we precipitated proteins with an antibody specific for CD3-ζ (34) to examine for the presence of phosphorylated proteins.
CD4+T cells were cultured with APC's pulsed with the wild-type peptide (WT), A12, or no antigen (No Ag). Proteins were immunoprecipitated with […] of affinity-purified anti-TCR-ζ antibody. The immunoprecipitates were separated by SDS-12%-PAGE, and transferred to nitrocellulose membrane. The membrane was blotted with monoclonal anti-phosphotyrosine antibody (α-pTyr). The positions of the phosphorylated-TCR-ζ are shown by arrows 410, 415. The 21 kDa and 23 kDa bands were not detected in immunoprecipitates from a B cell lymphoma line (data not shown). Bands for the total amount of zeta protein were identical for all three columns. Arrows 410 and 415 are shown denoting 21 kDa and 23 kDa bands, respectively. […] The bands are for No Ag 440, Wt 445, and A12 450. The bands are shown: Wt 425, No Ag 435, A12 430. Bands for zeta protein are shown: No Ag 455, Wt 460, and A12 465.

[2] = tested on: Peyer's Patch cells of DR1 TCRtg+/+ mice; test: Oral APL A12: IL-17 and IL-10 in cultures of Peyer's Patch cells of DR1 TCRtg+/+ mice; format: in vivo, mouse
RA PBMC [3] = test: 27 cytokines multiplex assay of 48 h RA PBMC culture supernatants; format: cell-based, human; settings: APL A12 10 μg/ml + α1(II) 50 μg/ml, 6 RA patients
Procedure: as §1

RA CD4+ T cells = test: Intracellular IFNγ and IL-17 in CD4+ T cells of CII-stimulated RA PBMC (flow cytometry); format: cell-based, human; settings: A12 10 μg/ml co-incubated with CII 50 μg/ml, 5 days; one RA patient; FIG. 2
Excerpt: We assessed the effect of APL A12 added to cultures of RA PBMC stimulated with α1(II) on CD4^+ T cells expression of IFNγ and IL-17 as shown in FIG. 2.
The flow use an IFNγ scale on y-axis 295 and IL-17 on x-axis 290, 291, 292, 293, 294 (log scale). The results of the flow are shown for Control 210 including IFNγ+IL-17 flow 270 and IFNγ Control flow 285. The results of the flow are shown for CII+A12 220 including IFNγ+IL-17 flow 265 and IFNγ Control flow 280. The results of the flow are shown for CII 230 including IFNγ+IL-17 flow 260 and IFNγ Control flow 275. Columns 240, 250 represent IFNγ+IL-17 flow and IFNγ Control flow, respectively. Peripheral blood lymphocytes were placed in culture (2×10^6/well, 24 well plate) and stimulated with either CII alone (50 μg/ml), CII+A12 peptide (10 μg/ml), or PBS for 5 days. […] Cells were then collected and analyzed by flow cytometry using fluorochrome-labeled antibodies specific for CD4, CD8, CD69, IL-17 and IFNγ. […] Data are based on a minimum of 75,000 events analyzed. The IFNγ Controls (right panels) are based on the fluorescence minus one (FMO) approach whereby the antibody of IFNγ is omitted from these samples to make sure that no fluorochrome was spilling over into the IFNγ detector.

DR4 mice = test: Suppression of immunity to CII and arthritis in DR4 mice; format: in vivo, mouse; settings: high-responder DR4 mice
Procedure: (§2) Assuming that CII263-270 was key to developing immunity to the intact CII molecule, a number of analog peptides where amino acids within this small segment were substituted with those found in the corresponding sites of nonarthritogenic type I collagen were prepared and tested. […] The APL A12 developed for this study has the following amino acid sequence: LGPKGQTGEBG[IAGNKGDQGPK]GEBGPA (SEQ ID NO: 3) where B=hydroxproline. The core determinant of human CII263-270 is bracketed. The underlined residues are those substituted to produce APL A12. The residues amino terminal and carboxy terminal to the core determinant is from the normal human CII sequence.

DR1 Transgenic mice [4] = test: Acute toxicity study of HC Peptide 1 in DR1 transgenic mice; format: in vivo, mouse
DR1 Transgenic mice [5] = test: Effect of A12 on CIA in DR1 Transgenic mice (CII plus A12; intravenous A12 after CII-immunization); format: in vivo, mouse; settings: for Incidence: arthritis incidence
Procedure: as §2

[6] = mice gavaged with 50 μg APL A12 9 times over 2 weeks, cells cultured with PBS
[7] = mice gavaged with 50 μg APL A12, cells cultured with APL A12 50 μg/ml
[8] = mice gavaged with 50 μg APL A12, cells cultured with CII263-270 50 μg/ml
[9] = mice gavaged with PBS, cells cultured with APL A12 50 μg/ml

LGPKGQTGEBGIAGAKGDQGPKGEBGPA [APL A12]
IFNγ production by RA PBMC (RA PBMC [1]; APL A12 alone, without α1(II), data not shown): no change from PBS control
RA patients who responded to APL A12 in vitro (RA PBMC [1]; NIH oral CII study): 50%
patients with IFNγ production down-regulated by ≧50% (RA PBMC [1]; patients with the RA susceptibility shared epitope): 7 of 10
patients with IFNγ production down-regulated by ≧50% (RA PBMC [1]; patients without the shared epitopes): 2 of 6
IFNy Stimulation Index (RA PBMC [1]; α1(II) + APL A12 1 μg/ml, individual patients with No Shared Epitope): 49 and 45 and 1120 and 928 and 586 and 75
IFNy Stimulation Index (RA PBMC [1]; α1(II) + APL A12 1 μg/ml, individual patients with Shared Epitope): 139 and 49 and 742 and 908 and 3190 and 85 and 203 and −65 and −74
IFNy Stimulation Index (RA PBMC [1]; α1(II) + APL A12 1 μg/ml, individual patients, HLA Unknown): 42 and 228
IFNy Stimulation Index (RA PBMC [1]; α1(II) + APL A12 10 μg/ml, individual patients with No Shared Epitope): 12 and −3 and 1220 and 807 and 479 and 91
IFNy Stimulation Index (RA PBMC [1]; α1(II) + APL A12 10 μg/ml, individual patients with Shared Epitope): 291 and 68 and 37 and 1220 and 644 and 2111 and 93 and 110 and −54 and −66
IFNy Stimulation Index (RA PBMC [1]; α1(II) + APL A12 10 μg/ml, individual patients, HLA Unknown): 73 and 180
IFNy Stimulation Index (RA PBMC [1]; α1(II) + APL A12 25 μg/ml, individual patients with No Shared Epitope): 16 and 50 and 934 and 778 and 357 and 106
IFNy Stimulation Index (RA PBMC [1]; α1(II) + APL A12 25 μg/ml, individual patients with Shared Epitope): 15 and 113 and 123 and 493 and 1350 and 2620 and 154 and 83 and −24 and 1
IFNy Stimulation Index (RA PBMC [1]; α1(II) + APL A12 25 μg/ml, individual patients, HLA Unknown): 121 and 214
TCR-ζ chain phosphorylation (TCR-ζ chain): did not significantly activate
II-10 Levels in Peyer's Patch Cultures [2, 6]: 116 pg/mL
IL-17 Levels in Peyer's Patch Cultures [2, 6]: 2.4 pg/mL
II-10 Levels in Peyer's Patch Cultures [2, 7]: 105 pg/mL
IL-17 Levels in Peyer's Patch Cultures [2, 7]: 1.8 pg/mL
II-10 Levels in Peyer's Patch Cultures [2, 8]: 94 pg/mL
IL-17 Levels in Peyer's Patch Cultures [2, 8]: 2.4 pg/mL
II-10 Levels in Peyer's Patch Cultures [2, 9]: 27 pg/mL
IL-17 Levels in Peyer's Patch Cultures [2, 9]: 16 pg/mL
IL-1ra (RA PBMC [3]): 2013 ± 220 pg/mL
IL-2 (RA PBMC [3]): 6 ± 0.9 pg/mL
IL-10 (RA PBMC [3]): 555 ± 104 pg/mL
IP-10 (RA PBMC [3]): 114 ± 91 pg/mL
PDGF-bb (RA PBMC [3]): 39 ± 25 pg/mL
RANTES (RA PBMC [3]): 750 ± 183 pg/mL
TNFα (RA PBMC [3]): 84 ± 17 pg/mL
decrease in the number of IFNγ-producing T cells (RA CD4+ T cells): 75%
reduction in IL-17 producing T cells (RA CD4+ T cells): 42%
immunity to CII and arthritis (DR4 mice): profoundly suppress
complete blood counts (CBC) (DR1 Transgenic mice [4]; after 6 days gavage with 100× the human dose vs IV saline): similar
Histologic assessment of internal organs (livers, spleens, kidneys, hearts, lungs) (DR1 Transgenic mice [4]; gavaged for six days with 100× human dose vs IV saline, listed as HC Peptide 1): no difference; also recorded: did not reveal abnormalities
clinical signs of illness, changes in complete blood counts or liver and renal chemistries (DR1 Transgenic mice [4]; oral, 100× the proposed human dose daily for six days): not associated
Changes in body weight (DR1 Transgenic mice [4]; over the six days gavaged with 100× the human dose, vs IV saline): similar
Antibodies to CII (DR1 Transgenic mice [5]; 0.01 mg (so in the source) i.v.): 33 ± 11
Antibodies to CII (DR1 Transgenic mice [5]; 0.5 mg total i.v.): 24 ± 7 (p ≦ 0.025)
Antibodies to CII (DR1 Transgenic mice [5]; 1 mg total i.v.): 22 ± 9 (p ≦ 0.025)
antibody production to CII (DR1 Transgenic mice [5]; DR1-Transgenic mice): significantly decreased
Incidence (DR1 Transgenic mice [5]; 0.01 mg (so in the source) i.v. on days 10, 12, 14 after CII-immunization): 5/10
Incidence (DR1 Transgenic mice [5]; 0.5 mg total i.v. on days 10, 12, 14 after CII-immunization): 3/10
Incidence (DR1 Transgenic mice [5]; 1 mg total i.v. on days 10, 12, 14 after CII-immunization): 1/10 (p = 0.01)
immunity to CII and arthritis (DR1 Transgenic mice [5]; high-responder DR1 mice): profoundly suppress
incidence of arthritis and number of arthritic limbs (DR1 Transgenic mice [5]; mice immunized with CII plus A12): dose-related decrease

Reference: patent US9144595B2, “APLs for treating arthritis” (University of Tennessee Research Foundation, priority 2009, dated 2015)
